Each structure is given as a SMILES string. pEC50, pIC50, pKi: −log10 of the molar value. The source made the active and inactive calls. No cut-off for these calls is given here. Bounds are passed on as bounds.

The nature of data set [1]: Lipophilicity, log D of the compound. It counts as physicochemical. Conditions: octanol/water.
Data set [2] can be described thus: Displacement of labeled diltiazem from calcium channel in guinea-pig hind limb skeletal muscle homogenates.
The nature of data set [3]: Clearance in rat at 1 mg/kg, iv and 2 mg/kg, po. The format is ADME, organism-based. Conditions: in vivo.
Data set [4] is described as follows: Clearance in dog at 0.25 mg/kg, iv and 2 mg/kg, po. Particulars: in vivo. It counts as ADME, organism-based, Canis lupus familiaris.
Data set [5] in a line: Clearance in monkey at 0.25 mg/kg, iv and 2 mg/kg, po. The format is ADME, organism-based, Macaca mulatta. Particulars: rhesus monkey, in vivo.
A short description of data set [6]: AUC in rat at 1 mg/kg, iv and 2 mg/kg, po. The format is ADME, organism-based. Conditions: plasma.
Data set [7] can be described thus: AUC in dog at 0.25 mg/kg, iv and 2 mg/kg, po. The format is ADME, organism-based, Canis lupus familiaris. Conditions: plasma.
Data set [8] in a line: AUC in monkey at 0.25 mg/kg, iv and 2 mg/kg, po. It counts as ADME, organism-based, Macaca mulatta. Particulars: rhesus monkey, plasma.
Data set [9] is described as follows: Half life in rat at 1 mg/kg, iv and 2 mg/kg, po. It counts as ADME, organism-based. Conditions: in vivo.
A short description of data set [10]: Half life in dog at 0.25 mg/kg, iv and 2 mg/kg, po. It counts as ADME, organism-based, Canis lupus familiaris. Conditions: in vivo.
Data set [11] can be described thus: Half life in monkey at 0.25 mg/kg, iv and 2 mg/kg, po. It counts as ADME, organism-based, Macaca mulatta. Particulars: rhesus monkey, in vivo.
A short description of data set [12]: Oral bioavailability in rat at 2 mg/kg. Particulars: in vivo. It counts as ADME, organism-based.
Data set [13] is described as follows: Oral bioavailability in dog at 2 mg/kg. The format is ADME, organism-based, Canis lupus familiaris. Conditions: in vivo.
A short description of data set [14]: Oral bioavailability in monkey at 2 mg/kg. The format is ADME, organism-based, Macaca mulatta. Particulars: rhesus monkey, in vivo.
Data set [15] deals with Mitogen-activated protein kinase 14 (Mus musculus, UniProt P47811).
Description: Inhibition of mouse p38alpha after 3 hrs by SPA method
Data set [16] deals with Voltage-gated inwardly rectifying potassium channel KCNH2 (Homo sapiens, UniProt Q12809).
Description: Displacement of labeled MK-499 from human ERG in HEK293 cells
In a further data set the test system is THP-1. The data set can be described thus: cells. Conditions: Homo sapiens, THP-1, 4 h.
Data set [17] concerns Blood. Put plainly: tissue or blood. Conditions: Homo sapiens.
Description: (§1) Inhibition of LPS-induced TNFalpha production in human whole blood
For data set [18], the target named is T1, Nuclear receptor subfamily 1 group I member 2 (Homo sapiens, UniProt O75469).
T1 sequence (O75469 whole entry): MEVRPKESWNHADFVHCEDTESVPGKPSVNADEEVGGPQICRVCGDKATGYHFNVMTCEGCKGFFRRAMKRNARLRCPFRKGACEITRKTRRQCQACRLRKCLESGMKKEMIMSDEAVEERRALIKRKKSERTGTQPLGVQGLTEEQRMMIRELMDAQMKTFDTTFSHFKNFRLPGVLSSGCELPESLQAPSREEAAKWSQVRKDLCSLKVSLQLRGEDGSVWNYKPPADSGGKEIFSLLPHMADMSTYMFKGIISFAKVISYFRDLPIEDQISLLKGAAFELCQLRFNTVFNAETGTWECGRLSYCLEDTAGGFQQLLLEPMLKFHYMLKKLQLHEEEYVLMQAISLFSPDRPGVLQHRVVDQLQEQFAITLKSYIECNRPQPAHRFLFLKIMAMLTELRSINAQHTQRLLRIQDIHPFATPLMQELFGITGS
Put plainly: Activation of PXR.

For data set [19], the system named is Blood.
Description: as §1
Data set [20] in a line: Half life in dog. The format is ADME, organism-based, Canis lupus familiaris. Particulars: in vivo.
The nature of data set [21]: Half life in monkey. The format is ADME, organism-based, Macaca mulatta. Particulars: rhesus monkey, in vivo.
Data set [22] relates to Rattus norvegicus. Put plainly: Antiarthritic activity in rat assessed as reduction of LPS-induced TNFalpha level at 1 mg/kg after 4 hrs. Set-up: scale not given: the % may be the effect or the level left. It counts as functional.
In data set [23] the test system is Rattus norvegicus. Put plainly: Antiarthritic activity in rat assessed as reduction of LPS-induced TNFalpha level at 3 mg/kg after 4 hrs. It counts as functional. Set-up: scale not given: the % may be the effect or the level left.
Data set [24] relates to Rattus norvegicus. Put plainly: Antiarthritic activity in rat assessed as reduction of LPS-induced TNFalpha level at 0.03 mg/kg after 4 hrs. The format is functional. Set-up: scale not given: the % may be the effect or the level left.
Data set [25] has as its system Rattus norvegicus. Put plainly: Antiarthritic activity in rat assessed as reduction of LPS-induced TNFalpha level at 30 mg/kg after 24 hrs. It counts as functional, organism-based. Set-up: dose 30 mg/kg.
In data set [26] the test system is Rattus norvegicus. Put plainly: Antiarthritic activity in rat assessed as reduction of LPS-induced TNFalpha level at 10 mg/kg after 24 hrs. It counts as functional, organism-based. Also noted: dose 10 mg/kg.
For data set [27], the system named is Rattus norvegicus. Put plainly: Antiarthritic activity in rat assessed as reduction of LPS-induced TNFalpha level at 1 mg/kg after 24 hrs. It counts as functional, organism-based. Also noted: dose 1 mg/kg.
Data set [28] deals with Rattus norvegicus. Put plainly: Antiarthritic activity in rat assessed as reduction of LPS-induced TNFalpha level at 3 mg/kg after 24 hrs. Also noted: dose 3 mg/kg. It counts as functional, organism-based.

Chain of Mitogen-activated protein kinase 14 (P47811 whole entry): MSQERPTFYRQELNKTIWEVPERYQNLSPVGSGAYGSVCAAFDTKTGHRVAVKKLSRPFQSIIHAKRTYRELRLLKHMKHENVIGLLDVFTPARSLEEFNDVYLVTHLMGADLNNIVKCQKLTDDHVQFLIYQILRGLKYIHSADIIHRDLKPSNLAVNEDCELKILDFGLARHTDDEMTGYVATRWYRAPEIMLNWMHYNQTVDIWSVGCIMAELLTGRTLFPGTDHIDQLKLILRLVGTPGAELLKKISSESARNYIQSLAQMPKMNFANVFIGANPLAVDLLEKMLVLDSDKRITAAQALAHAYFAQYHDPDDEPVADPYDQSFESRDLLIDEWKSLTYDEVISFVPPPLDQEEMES
Chain of Voltage-gated inwardly rectifying potassium channel KCNH2 (Q12809 whole entry): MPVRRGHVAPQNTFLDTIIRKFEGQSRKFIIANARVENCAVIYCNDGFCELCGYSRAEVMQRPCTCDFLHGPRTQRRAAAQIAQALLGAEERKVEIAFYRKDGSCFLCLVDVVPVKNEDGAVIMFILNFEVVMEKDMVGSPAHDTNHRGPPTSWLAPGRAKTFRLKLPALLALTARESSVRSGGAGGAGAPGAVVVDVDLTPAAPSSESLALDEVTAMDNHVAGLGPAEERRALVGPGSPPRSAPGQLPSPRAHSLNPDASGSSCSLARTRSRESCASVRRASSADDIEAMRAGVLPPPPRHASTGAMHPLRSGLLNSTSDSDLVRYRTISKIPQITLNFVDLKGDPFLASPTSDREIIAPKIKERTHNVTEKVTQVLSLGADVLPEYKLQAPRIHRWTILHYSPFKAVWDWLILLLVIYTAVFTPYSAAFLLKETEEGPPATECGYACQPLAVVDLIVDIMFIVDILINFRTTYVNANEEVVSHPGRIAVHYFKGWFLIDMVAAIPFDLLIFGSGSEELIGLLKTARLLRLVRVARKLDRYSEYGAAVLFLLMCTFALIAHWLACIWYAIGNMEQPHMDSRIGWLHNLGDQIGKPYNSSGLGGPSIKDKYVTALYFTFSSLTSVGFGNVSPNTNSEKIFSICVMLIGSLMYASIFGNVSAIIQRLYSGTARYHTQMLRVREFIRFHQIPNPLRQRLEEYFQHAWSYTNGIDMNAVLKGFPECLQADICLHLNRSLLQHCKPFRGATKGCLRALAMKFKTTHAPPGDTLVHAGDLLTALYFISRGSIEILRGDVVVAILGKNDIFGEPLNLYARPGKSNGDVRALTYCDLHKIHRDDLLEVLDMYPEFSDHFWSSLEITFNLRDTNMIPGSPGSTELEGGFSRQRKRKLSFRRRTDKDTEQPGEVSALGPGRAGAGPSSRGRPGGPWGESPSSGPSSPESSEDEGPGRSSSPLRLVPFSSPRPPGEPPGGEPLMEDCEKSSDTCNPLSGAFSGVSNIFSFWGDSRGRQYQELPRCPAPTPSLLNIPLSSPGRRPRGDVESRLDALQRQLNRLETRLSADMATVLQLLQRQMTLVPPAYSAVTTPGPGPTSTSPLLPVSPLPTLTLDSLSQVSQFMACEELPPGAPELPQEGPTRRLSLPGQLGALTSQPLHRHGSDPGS
Description for THP-1: Inhibition of LPS-induced TNFalpha production in human THP1 cells after 4 hrs by ELISA

As for `O=C1NCc2c(-c3ccc(F)cc3F)cc(N3CCNCC3)cc2N1c1c(Cl)cccc1Cl`, the logD in data set [1] worked out at 4.2.
For the molecule `O=c1ccn2c(-c3ccc(F)cc3F)cccc2c1-c1cc(-c2nnco2)ccc1F`, the pIC50 in [2] is under 4.52; in [15], 7.89; in the data set on THP-1, 7.60; in the data set on Blood [17], 7.34. Also, the clearance in [3] is 3.1 mL/min/kg; in data set [4], 0.49 mL/min/kg; in data set [5], 3.6 mL/min/kg. Moreover, the AUC was found to be 25.6 µM·h in data set [6], 49.3 µM·h in data set [7] and 5.1 µM·h in data set [8]. In addition, the half-life is 1.8 h in [9], 30.4 h in data set [10] and 5.9 h in data set [11]. The bioavailability in data set [12] amounted to 100%; in [13], 45%; in data set [14], 47%. This molecule also showed a pKi in data set [16] of under 4.70.
In data set [18], `NC(=O)c1cc(F)c(-c2c(=O)ccn3c(-c4ccc(F)cc4F)cccc23)c(F)c1` had a pEC50 of under 4.52. The results for the pIC50 (in [15]; with THP-1; in the data set on Blood [17]) were 7.70, 6.74 and 6.01, respectively.
Regarding `Cc1noc(-c2cc(F)c(-c3c(=O)ccn4c(-c5ccc(F)cc5F)cccc34)c(F)c2)n1`, the pEC50 in [18] was under 4.52. Moreover, the pIC50 in data set [15] is 8.06; with THP-1 it was 6.37; in the data set with Blood [17], 6.16.
The like results for `Nc1nnc(-c2cc(F)c(-c3c(=O)ccn4c(-c5ccc(F)cc5F)cccc34)c(F)c2)o1` were, in that order, under 4.52, 8.17, 6.57 and 5.80.
In the case of `COC(=O)c1cc(F)c(-c2c(=O)ccn3c(-c4ccc(F)cc4F)cccc23)c(F)c1`, the pEC50 in data set [18] is under 4.52. In addition, the pIC50 in [15] was 8.82; in the data set with THP-1, 5.19. Further, in the data set with Blood [19], the IC50 result is “Not Active”.
In the case of `O=c1ccn2c(-c3ccc(F)cc3F)cccc2c1-c1c(F)cc(-c2nnco2)cc1F`, in data set [18], the pEC50 was under 4.52. Further, the results for the pIC50 (in data set [15]; with THP-1; with Blood [17]) were 8.28, 6.58 and 6.11, respectively.
For the molecule `Nc1cc2c(ccc(=O)n2-c2c(F)cccc2F)c(-c2ccc(F)cc2F)n1`, in data set [1], the logD stood at 2.7. The results for the pIC50 in data set [2] and in data set [15] were 5.34 and 9.22, respectively. For the same molecule, the pKi in data set [16] is 5.29.
As to `O=c1ccn2c(-c3ccc(F)cc3F)cccc2c1-c1c(F)cccc1F`, the pH-dependent lipophilicity (logD) in [1] turned out to be 2.5. In addition, the half-life in data set [20] was 20 h; in data set [21], over 100 h.
For `Cc1nnc(-c2ccc(F)c(-c3c(=O)ccn4c(-c5ccc(F)cc5F)cccc34)c2)o1`, the clearance in data set [3] is 2.4 mL/min/kg; in [4] it was 0.88 mL/min/kg; in data set [5], 0.9 mL/min/kg. The AUC in data set [6] worked out at 21.7 µM·h; in data set [7], 58.6 µM·h; in data set [8] it was 23.9 µM·h. Moreover, the half-life in data set [9] was 1.4 h; in [10], 12 h; in [11], 9.5 h. Further, the bioavailability in [12] is 68%; in [13] it was 66%; in data set [14], 55%. Besides, the Activity in the data set with Rattus norvegicus [22] is recorded as over 90%; with Rattus norvegicus [23] it was over 90%; in the data set on Rattus norvegicus [24], 50%. Further, the outcome in the data set on Rattus norvegicus [25], in the data set with Rattus norvegicus [26], in the data set on Rattus norvegicus [27] and with Rattus norvegicus [28] was Active.
`N#Cc1cc(F)c(-c2c(=O)ccn3c(-c4ccc(F)cc4F)cccc23)c(F)c1` showed a pEC50 in data set [18] of under 4.52. Further, the pIC50 in data set [15] is 8.82; with THP-1, 5.19. Moreover, the IC50 result in the data set with Blood [19] was “Not Active”.

The values above are taken from ChEMBL document CHEMBL1158539, “Synthesis and biological activity of 2H-quinolizin-2-one based p38alpha MAP kinase inhibitors” (Bioorg Med Chem Lett, 2010).
